Values after ≈ are worked out from the molar mass of the structure shown. Values belong to the compound of their own block, whether it stands above or below them.
Legend:
[1] = tested on: Staphylococcus aureus; assay: Antibacterial activity against wild type methicillin-sensitive Staphylococcus aureus ATCC 29213 assessed as inhibition of bacterial growth incubated for 18 to 24 hrs by broth microdilution method; type: functional; conditions: time 18-24 hrs
[2] = Inhibition of Staphylococcus aureus Gyrase B using linear pBR322 DNA as substrate incubated for 30 mins in presence of ATP by ADP-Glo assay
[3] = tested on: Staphylococcus epidermidis; assay: Antibacterial activity against methicillin-resistant Staphylococcus epidermidis clinical isolate 15-2 assessed as inhibition of bacterial growth incubated for 18 to 24 hrs by broth microdilution method; type: functional; conditions: time 18-24 hrs
[4] = tested on: Staphylococcus aureus; assay: Antibacterial activity against methicillin-resistant Staphylococcus aureus clinical isolate 15-1 assessed as inhibition of bacterial growth incubated for 18 to 24 hrs by broth microdilution method; type: functional; conditions: time 18-24 hrs
[5] = tested on: Staphylococcus epidermidis; assay: Antibacterial activity against methicillin-sensitive Staphylococcus epidermidis clinical isolate 15-3 assessed as inhibition of bacterial growth incubated for 18 to 24 hrs by broth microdilution method; type: functional; conditions: time 18-24 hrs
[6] = tested on: Staphylococcus aureus; assay: Antibacterial activity against methicillin resistant and vancomycin-intermediate sensitive Staphylococcus aureus ATCC 700788 assessed as inhibition of bacterial growth incubated for 18 to 24 hrs by broth microdilution method; type: functional; conditions: time 18-24 hrs
[7] = tested on: Staphylococcus aureus; assay: Antibacterial activity against methicillin-resistant Staphylococcus aureus clinical isolate 15-8 assessed as inhibition of bacterial growth incubated for 18 to 24 hrs by broth microdilution method; type: functional; conditions: time 18-24 hrs
[8] = tested on: Enterococcus faecalis; assay: Antibacterial activity against vancomycin-resistant Enterococcus faecalis ATCC 51575 assessed as inhibition of bacterial growth incubated for 18 to 24 hrs by broth microdilution method; type: functional; conditions: time 18-24 hrs
[9] = tested on: Enterococcus faecium; assay: Antibacterial activity against Enterococcus faecium clinical isolate 15-1 assessed as inhibition of bacterial growth incubated for 18 to 24 hrs by broth microdilution method; type: functional; conditions: time 18-24 hrs
[10] = tested on: Staphylococcus aureus; assay: Antibacterial activity against methicillin-resistant Staphylococcus aureus clinical isolate 15-6 assessed as inhibition of bacterial growth incubated for 18 to 24 hrs by broth microdilution method; type: functional; conditions: time 18-24 hrs
[11] = tested on: Staphylococcus aureus; assay: Antibacterial activity against methicillin-resistant Staphylococcus aureus clinical isolate 15-2 assessed as inhibition of bacterial growth incubated for 18 to 24 hrs by broth microdilution method; type: functional; conditions: time 18-24 hrs
[12] = tested on: Staphylococcus epidermidis; assay: Antibacterial activity against methicillin-sensitive Staphylococcus epidermidis clinical isolate 15-4 assessed as inhibition of bacterial growth incubated for 18 to 24 hrs by broth microdilution method; type: functional; conditions: time 18-24 hrs
[13] = tested on: Staphylococcus aureus; assay: Antibacterial activity against methicillin resistant and vancomycin-intermediate sensitive Staphylococcus aureus ATCC 700699 assessed as inhibition of bacterial growth incubated for 18 to 24 hrs by broth microdilution method; type: functional; conditions: time 18-24 hrs
[14] = tested on: Staphylococcus epidermidis; assay: Antibacterial activity against methicillin-resistant Staphylococcus epidermidis clinical isolate 15-1 assessed as inhibition of bacterial growth incubated for 18 to 24 hrs by broth microdilution method; type: functional; conditions: time 18-24 hrs
[15] = tested on: Staphylococcus aureus; assay: Antibacterial activity against methicillin-resistant Staphylococcus aureus clinical isolate 15-9 assessed as inhibition of bacterial growth incubated for 18 to 24 hrs by broth microdilution method; type: functional; conditions: time 18-24 hrs
[16] = tested on: Staphylococcus aureus; assay: Antibacterial activity against methicillin-resistant Staphylococcus aureus clinical isolate 15-7 assessed as inhibition of bacterial growth incubated for 18 to 24 hrs by broth microdilution method; type: functional; conditions: time 18-24 hrs
[17] = tested on: Staphylococcus aureus; assay: Antibacterial activity against methicillin-resistant Staphylococcus aureus clinical isolate 15-3 assessed as inhibition of bacterial growth incubated for 18 to 24 hrs by broth microdilution method; type: functional; conditions: time 18-24 hrs
[18] = tested on: Enterococcus faecalis; assay: Antibacterial activity against vancomycin-resistant Enterococcus faecalis ATCC 51299 assessed as inhibition of bacterial growth incubated for 18 to 24 hrs by broth microdilution method; type: functional; conditions: time 18-24 hrs
[19] = tested on: Enterococcus faecalis; assay: Antibacterial activity against Enterococcus faecalis clinical isolate 15-2 assessed as inhibition of bacterial growth incubated for 18 to 24 hrs by broth microdilution method; type: functional; conditions: time 18-24 hrs
[20] = tested on: Staphylococcus epidermidis; assay: Antibacterial activity against methicillin-resistant Staphylococcus epidermidis clinical isolate 15-3 assessed as inhibition of bacterial growth incubated for 18 to 24 hrs by broth microdilution method; type: functional; conditions: time 18-24 hrs
[21] = tested on: Enterococcus faecalis; assay: Antibacterial activity against vancomycin-resistant Enterococcus faecalis ATCC 700802 assessed as inhibition of bacterial growth incubated for 18 to 24 hrs by broth microdilution method; type: functional; conditions: time 18-24 hrs
[22] = tested on: Enterococcus faecium; assay: Antibacterial activity against Enterococcus faecium clinical isolate 15-2 assessed as inhibition of bacterial growth incubated for 18 to 24 hrs by broth microdilution method; type: functional; conditions: time 18-24 hrs
[23] = tested on: Enterococcus faecalis; assay: Antibacterial activity against Enterococcus faecalis clinical isolate 15-1 assessed as inhibition of bacterial growth incubated for 18 to 24 hrs by broth microdilution method; type: functional; conditions: time 18-24 hrs

- MIC [1]: 3.12 µg/mL (≈ 8.75 µM)
- IC50 [2]: 580 nM
SMILES: CCn1c(=O)c(C(=O)Nc2nnc(C3CC3)s2)c(O)c2ccccc21

- MIC [1]: 12.5 µg/mL (≈ 27.3 µM)
- IC50 [2]: 1420 nM
SMILES: CCn1c(=O)c(C(=O)Nc2nnc(-c3ccc(OC(F)F)cc3)s2)c(O)c2ccccc21

SMILES: CCCCc1nnc(NC(=O)c2c(O)c3ccccc3n(CC)c2=O)s1
- MIC [3]: 2 µg/mL (≈ 5.37 µM)
- MIC [4]: 2 µg/mL (≈ 5.37 µM)
- MIC [5]: 2 µg/mL (≈ 5.37 µM)
- MIC [6]: 4 µg/mL (≈ 10.7 µM)
- MIC [1]: 0.1 µg/mL (≈ 0.268 µM)
- MIC [7]: 2 µg/mL (≈ 5.37 µM)
- MIC [8]: 8 µg/mL (≈ 21.5 µM)
- MIC [9]: 2 µg/mL (≈ 5.37 µM)
- MIC [10]: 2 µg/mL (≈ 5.37 µM)
- MIC [11]: 2 µg/mL (≈ 5.37 µM)
- MIC [12]: 2 µg/mL (≈ 5.37 µM)
- MIC [13]: 4 µg/mL (≈ 10.7 µM)
- MIC [14]: 2 µg/mL (≈ 5.37 µM)
- MIC [15]: 2 µg/mL (≈ 5.37 µM)
- MIC [16]: 4 µg/mL (≈ 10.7 µM)
- MIC [17]: 2 µg/mL (≈ 5.37 µM)
- MIC [18]: 8 µg/mL (≈ 21.5 µM)
- MIC [19]: 2 µg/mL (≈ 5.37 µM)
- MIC [20]: 2 µg/mL (≈ 5.37 µM)
- MIC [21]: 8 µg/mL (≈ 21.5 µM)
- MIC [22]: 2 µg/mL (≈ 5.37 µM)
- MIC [23]: 2 µg/mL (≈ 5.37 µM)
- IC50 [2]: 990 nM

- MIC [1]: 12.5 µg/mL (≈ 31.4 µM)
- IC50 [2]: 550 nM
SMILES: CCn1c(=O)c(C(=O)Nc2nnc(C3CCCCC3)s2)c(O)c2ccccc21

SMILES: CCc1nnc(NC(=O)c2c(O)c3ccccc3n(CC)c2=O)s1
- MIC [3]: 2 µg/mL (≈ 5.81 µM)
- MIC [4]: 2 µg/mL (≈ 5.81 µM)
- MIC [5]: 2 µg/mL (≈ 5.81 µM)
- MIC [6]: 2 µg/mL (≈ 5.81 µM)
- MIC [1]: 0.78 µg/mL (≈ 2.26 µM)
- MIC [7]: 1 µg/mL (≈ 2.9 µM)
- MIC [8]: 8 µg/mL (≈ 23.2 µM)
- MIC [9]: 4 µg/mL (≈ 11.6 µM)
- MIC [10]: 2 µg/mL (≈ 5.81 µM)
- MIC [11]: 2 µg/mL (≈ 5.81 µM)
- MIC [12]: 2 µg/mL (≈ 5.81 µM)
- MIC [13]: 2 µg/mL (≈ 5.81 µM)
- MIC [14]: 2 µg/mL (≈ 5.81 µM)
- MIC [15]: 1 µg/mL (≈ 2.9 µM)
- MIC [16]: 1 µg/mL (≈ 2.9 µM)
- MIC [17]: 2 µg/mL (≈ 5.81 µM)
- MIC [18]: 8 µg/mL (≈ 23.2 µM)
- MIC [19]: 2 µg/mL (≈ 5.81 µM)
- MIC [20]: 2 µg/mL (≈ 5.81 µM)
- MIC [21]: 8 µg/mL (≈ 23.2 µM)
- MIC [22]: 2 µg/mL (≈ 5.81 µM)
- MIC [23]: 2 µg/mL (≈ 5.81 µM)
- IC50 [2]: 450 nM

- MIC [1]: 12.5 µg/mL (≈ 31.2 µM)
- IC50 [2]: 350 nM
SMILES: CCCCCCc1nnc(NC(=O)c2c(O)c3ccccc3n(CC)c2=O)s1

- MIC [1]: 3.12 µg/mL (≈ 7.83 µM)
- IC50 [2]: 220 nM
SMILES: CCn1c(=O)c(C(=O)Nc2nnc(-c3cccs3)s2)c(O)c2ccccc21

- MIC [1]: 6.25 µg/mL (≈ 16.3 µM)
- IC50 [2]: 550 nM
SMILES: CCn1c(=O)c(C(=O)Nc2nnc(C3CCCC3)s2)c(O)c2ccccc21

Reference: ChEMBL document CHEMBL4680144, “N-thiadiazole-4-hydroxy-2-quinolone-3-carboxamides bearing heteroaromatic rings as novel antibacterial agents: Design, synthesis, biological evaluation and target identification” (Eur J Med Chem, 2020)
